Like-named read-outs stand apart in the source and are kept apart here.

Consider 50 compounds from patent US6376670B1, “Quinoline-indole antimicrobial agents, uses and compositions related thereto” (Sepracor Inc., priority 1997, dated 2002).

Assay [1] has as its system methicillin-resistant Staphylococcus aureus (MRSA). Briefly: Determination of MIC values (BHI broth, 96 well microtiter plate). It is filed as cell-based. The settings on record: Staphylococcus aureus, MRSA, BHI broth, read-out: MIC MRSA. On the procedure: (§1) Stock solutions of compounds are prepared with a concentration of 10 mg/mL. These solutions are then diluted 1:4 to give a concentration of 2.5 mg/mL. The compounds are then serially diluted 1:2 for 6 iterations. The concentrations made for each compound are 2.5, 1.25, 0.625, 0.3125, 0.156, 0.078, and 0.039 mg/mL. A control sample (no compound) is run along with each compound tested. All dilutions are made in DMSO.
(§2) All wells of a 96 well microtiter plate are filled with 100 μL of BHI (Brain-Heart Infusion) broth. Columns on the plate are labeled 1-12, and rows are labeled A-H. Each column of wells is used to test one series of diluted compounds. Into each well of 100 μL of BHI broth, 1 μL of diluted compound is placed for a 1:100 dilution. This makes the final concentration of each drug series 25, 12.5, 6.25, 3.125, 1.56, 0.78, 0.39, and 0 μg/mL.
(§3) Test Organism: A sterile 15 mL screw cap tube is filled wth 3 mL of BHI broth. Next, 2-3 colonies of test organism are inoculated into the tube. The tube is then incubated at 37° C. in a CO2 (approx. 7%) atmosphere jar. The organisms are allowed to grow to the density of a 0.5 McFarland standard (10^8 cells/mL). The organism is then inoculated into each well of the microtiter plate containing the diluted compounds to be tested for MIC. The inoculum is 1 μL in volume and represents 10^5 to 10^6 cells/mL.
(§4) After inoculation the plates are covered and incubated at 37° C. and approx. 7-10% CO2 atmosphere overnight (about 16 hours). The plates are then observed for growth, the well with the lowest concentration of drug and no observable growth represents the well determining the MIC.

Assay [2] concerns vancomycin-resistant Enterococcus spp. (VRE). The assay is described as above. It counts as cell-based. The settings on record: Enterococcus, VRE, BHI broth, read-out: MIC VREF. Here is the method: as §1, §2, §3, §4
[3] abbreviates: 16 h, 37° C., overnight (about 16 hours).

For `Cc1ccc2c(c1)c(-c1ccc3cc(Cl)ccc3n1)cn2C` [Example 216], the MIC (in general, the least concentration at which growth counts as inhibited) in assay [1] (overnight 37° C.) was < 25 µg/mL; in assay [2] (VREF, overnight 37° C.), > 25 µg/mL.

`NCc1ccc(CNC(=O)c2cc(-c3c(-c4ccccc4)[nH]c4ccccc34)nc3ccccc23)cc1` [Example 22]: the MIC in assay [1] (setting [3]) and in assay [2] (setting [3]) was > 25 µg/mL each time.

`NCc1ccc(CNC(=O)c2cc3ccccc3c(-c3c[nH]c4ccc(Br)cc34)n2)cc1` [Example 13]: the MIC in assay [1] (setting [3]) was < 7 µg/mL; in assay [2] (setting [3]), < 25 µg/mL.

With `NCCNC(=O)c1cc(-c2c[nH]c3ccc(Br)cc23)nc2ccccc12` [compound 2], the MIC in assay [1] (setting [3]) and in assay [2] (setting [3]) was < 25 µg/mL in each case.

With `NCc1ccc(CNC(=O)c2cc(-c3c[nH]c4ccc(Br)cc34)nc3cc4c(cc23)OCCO4)cc1` [Example 150], the MIC in assay [1] (setting [3]) and in assay [2] (setting [3]) was > 25 µg/mL in each case.

In the case of `Cn1cc(-c2ccc3cc(Cl)ccc3n2)c2cc(Cl)ccc21` [Example 180], the MIC in assay [1] (setting [3]) and in assay [2] (setting [3]) was > 25 µg/mL in each case.

As to `O=C(c1cc(-c2c[nH]c3ccc(Br)cc23)nc2ccccc12)N1CCCNCC1` [Example 14], the MIC in assay [1] (setting [3]) and in assay [2] (setting [3]) was < 25 µg/mL each time.

On to `NCc1ccc(CNC(=O)c2cc(-c3ccoc3)nc3ccccc23)cc1` [Example 82], for which the MIC in assay [1] (setting [3]) and in assay [2] (setting [3]) was > 25 µg/mL throughout.

With `O=C(c1cc(-c2c[nH]c3ccc(Br)cc23)nc2ccccc12)N1CCNCC1` [compound 11], the MIC in assay [1] (setting [3]) and in assay [2] (setting [3]) was < 25 µg/mL throughout.

On to `Clc1ccc2nc(-c3c(-c4ccccc4)[nH]c4ccccc34)ccc2c1` [Example 203], for which the MIC in assay [1] (overnight 37° C.) was > 25 µg/mL; in assay [2] (VREF, overnight 37° C.) it was > 25 µg/mL.

`Cn1cc(-c2ccc3cc(Cl)ccc3n2)c2cc(Br)ccc21` [Example 167]: the MIC in assay [1] (setting [3]) and in assay [2] (setting [3]) was > 25 µg/mL throughout.

In the case of `Cn1cc(-c2ccc3ccccc3n2)c2cc(Br)ccc21` [Example 178], the MIC in assay [1] (setting [3]) and in assay [2] (setting [3]) was > 25 µg/mL each time.

Consider `NCc1ccc(CNC(=O)c2cc(-c3csc4ccc(Cl)cc34)nc3ccc(I)cc23)cc1` [Example 140], for which the MIC in assay [1] (setting [3]) is > 25 µg/mL; in assay [2] (setting [3]) it was < 25 µg/mL.

As to `NCCCNC(=O)c1cc(-c2c[nH]c3ccc(Br)cc23)nc2ccccc12` [compound 3], the MIC in assay [1] (setting [3]) and in assay [2] (setting [3]) was < 25 µg/mL each time.

Consider `Cc1ccc2[nH]cc(-c3cc(C(=O)NC(Cc4ccc5ccccc5c4)C(N)=O)c4ccccc4n3)c2c1` (stereo not shown) [Example 146], for which the results for the MIC in assay [1] (setting [3]) and in assay [2] (setting [3]) were < 7 µg/mL and < 25 µg/mL, respectively.

For the compound `CN(CC#Cc1ccc2nc(-c3c[nH]c4ccc(Br)cc34)cc(C(=O)NCc3ccc(CN)cc3)c2c1)C1CCCCC1` [Example 237], the minimal inhibitory concentration (MIC) is < 7 µg/mL in assay [1] (overnight 37° C.) and < 7 µg/mL in assay [2] (VREF, overnight 37° C.).

Regarding `Cn1cc(-c2cc(C(=O)NCc3ccc(CN)cc3)c3ccccc3n2)c2ccccc21` [Example 12], the MIC in assay [1] (setting [3]) and in assay [2] (setting [3]) was > 25 µg/mL each time.

`COC(=O)c1cc(-c2c[nH]c3ccc(Br)cc23)nc2ccccc12` [Example 24]: the MIC in assay [1] (setting [3]) and in assay [2] (setting [3]) was > 25 µg/mL in each case.

Take `O=C(Nc1ccc(OC(F)(F)F)cc1)N1CCN(C(=O)c2cc(-c3c[nH]c4ccc(Br)cc34)nc3ccccc23)CC1` [Example 68]: the MIC in assay [1] (setting [3]) and in assay [2] (setting [3]) was < 7 µg/mL each time.

With `Cn1cc(-c2ccc3ccccc3n2)c2ccccc21` [Example 176], the MIC in assay [1] (setting [3]) and in assay [2] (setting [3]) was > 25 µg/mL each time.

For `NCCCN1CCN(CCCNC(=O)c2cc(-c3c[nH]c4ccc(Br)cc34)nc3ccc(I)cc23)CC1` [Example 70], the MIC in assay [1] (setting [3]) was < 7 µg/mL; in assay [2] (setting [3]), < 25 µg/mL.

Regarding `Cn1cc(-c2ccc3cc(Cl)ccc3n2)c2cc(F)ccc21` [Example 210], the MIC in assay [1] (overnight 37° C.) is < 7 µg/mL; in assay [2] (VREF, overnight 37° C.), > 25 µg/mL.

In the case of `NCc1ccc(CNC(=O)c2cc(-c3cccnc3)nc3ccc(Br)cc23)cc1` [Example 84], the results for the MIC in assay [1] (setting [3]) and in assay [2] (setting [3]) were < 7 µg/mL and < 25 µg/mL, respectively.

Turning to `O=C(NCc1ccc(CNC(=O)c2cc(-c3c[nH]c4ccc(Br)cc34)nc3ccccc23)cc1)Nc1ccc(C(F)(F)F)cc1` [Example 85], the MIC was < 7 µg/mL in assay [1] (setting [3]) and < 25 µg/mL in assay [2] (setting [3]).

Regarding `O=C(Nc1ccc(O)cc1)c1cc(-c2c[nH]c3ccc(Br)cc23)nc2ccccc12` [Example 37], the MIC in assay [1] (setting [3]) was < 7 µg/mL; in assay [2] (setting [3]), > 25 µg/mL.

With `NCCCCNC(=O)c1cc(-c2c[nH]c3ccc(Br)cc23)nc2ccccc12` [compound 58], the MIC in assay [1] (setting [3]) and in assay [2] (setting [3]) was < 25 µg/mL each time.

As to `Cn1cc(-c2ccc3ccccc3n2)c2cc(Cl)ccc21` [Example 177], the MIC in assay [1] (setting [3]) and in assay [2] (setting [3]) was > 25 µg/mL in each case.

Consider `Cn1cc(-c2ccc3cc(Cl)ccc3n2)c2cc(OCc3ccccc3)ccc21` [Example 213], for which the MIC in assay [1] (overnight 37° C.) is < 25 µg/mL; in assay [2] (VREF, overnight 37° C.), < 25 µg/mL.

For `Oc1ccc2[nH]cc(-c3ccc4cc(Cl)ccc4n3)c2c1` [Example 205], the MIC in assay [1] (overnight 37° C.) is < 25 µg/mL; in assay [2] (VREF, overnight 37° C.), < 25 µg/mL.

Regarding `NCc1ccc(CNC(=O)c2cc(-c3c[nH]c4ccc(OCc5ccccc5)cc34)nc3ccccc23)cc1` [Example 19], the MIC in assay [1] (setting [3]) and in assay [2] (setting [3]) was < 25 µg/mL in each case.

Consider `Cc1ccc2[nH]cc(-c3ccc4cc(Cl)ccc4n3)c2c1` [Example 198], for which the MIC in assay [1] (setting [3]) and in assay [2] (setting [3]) was > 25 µg/mL throughout.

On to `CNC1CCN(C(=O)c2cc(-c3c[nH]c4ccc(Br)cc34)nc3ccccc23)CC1` [Example 31], for which the MIC in assay [1] (setting [3]) and in assay [2] (setting [3]) was < 25 µg/mL each time.

As to `NCc1ccc(CNC(=O)c2cc(-c3c[nH]c4ccc(Br)cc34)nc3ccc(C#Cc4ccccc4)cc23)cc1` [Example 101], the MIC in assay [1] (setting [3]) and in assay [2] (setting [3]) was < 7 µg/mL in each case.

For the compound `NCc1ccc(CNC(=O)c2cc(-c3ccncc3)nc3ccc(Br)cc23)cc1` [Example 94], the MIC in assay [1] (setting [3]) and in assay [2] (setting [3]) was > 25 µg/mL throughout.

As to `O=C(O)c1cc(-c2c[nH]c3ccccc23)nc2ccc(I)cc12` [Example 155], the MIC in assay [1] (setting [3]) and in assay [2] (setting [3]) was > 25 µg/mL throughout.

`NCc1ccc(CNC(=O)c2cc(-c3c[nH]c4cccc(F)c34)nc3ccccc23)cc1` [Example 79]: the MIC in assay [1] (setting [3]) and in assay [2] (setting [3]) was > 25 µg/mL in each case.

Consider `CNCc1ccc(CNCc2cc(-c3c[nH]c4ccc(Br)cc34)nc3ccccc23)cc1` [Example 50], for which the figures for the MIC in assay [1] (setting [3]) and in assay [2] (setting [3]) were < 7 µg/mL and < 25 µg/mL, respectively.

With `NCc1ccc(CNC(=O)c2cc(-c3c[nH]c4ccc(Br)cc34)nc3ccc(OC(F)(F)F)cc23)cc1` [Example 55], the MIC in assay [1] (setting [3]) and in assay [2] (setting [3]) was < 7 µg/mL in each case.

For the compound `NCc1ccc(CNC(=O)c2cc(-c3ccccn3)nc3ccccc23)cc1` [Example 93], the MIC in assay [1] (setting [3]) and in assay [2] (setting [3]) was > 25 µg/mL each time.

Regarding `CN(CC#Cc1cccc2c(C(=O)NCc3ccc(CN)cc3)cc(-c3c[nH]c4ccc(Br)cc34)nc12)C1CCCCC1` [Example 265], the MIC in assay [1] (overnight 37° C.) was < 7 µg/mL; in assay [2] (VREF, overnight 37° C.) it was < 7 µg/mL.

With `NCc1ccc(CNC(=O)c2cc(-c3c[nH]c4ccccc34)nc3ccccc23)cc1` [compound 7], the MIC in assay [1] (setting [3]) and in assay [2] (setting [3]) was > 25 µg/mL throughout.

As to `NCCN(CCNC(=O)c1cccc2nc(-c3c[nH]c4ccc(Br)cc34)ccc12)CCNC(=O)c1cc(-c2c[nH]c3ccc(Br)cc23)nc2ccccc12` [Example 51], the MIC in assay [1] (setting [3]) and in assay [2] (setting [3]) was < 7 µg/mL in each case.

Regarding `NC(=O)c1cc(-c2c[nH]c3ccc(Br)cc23)nc2ccc(C#CCN3CCCCC3)cc12` [Example 137], the MIC in assay [1] (setting [3]) and in assay [2] (setting [3]) was < 25 µg/mL each time.

As for `NCc1cccc(CNC(=O)c2cc(-c3ccsc3)nc3ccc(Br)cc23)c1` [Example 166], the MIC in assay [1] (setting [3]) and in assay [2] (setting [3]) was > 25 µg/mL each time.

Turning to `O=C(NCCN1CCCC1)c1cc(-c2c[nH]c3ccc(Br)cc23)nc2ccccc12` [Example 44], the MIC in assay [1] (setting [3]) and in assay [2] (setting [3]) was < 25 µg/mL each time.

As to `NC1CCN(C(=O)c2cc(-c3c[nH]c4ccc(Br)cc34)nc3ccccc23)C1` (stereo not shown) [Example 43], the MIC in assay [1] (setting [3]) and in assay [2] (setting [3]) was < 25 µg/mL throughout.

With `NCC1CCCC(CNC(=O)c2cc(-c3c[nH]c4ccc(Br)cc34)nc3ccccc23)C1` (stereo not shown) [compound 5], the MIC in assay [1] (setting [3]) and in assay [2] (setting [3]) was < 7 µg/mL in each case.

In the case of `Cn1cc(-c2ccc3cc(Cl)ccc3n2)c2ccc(F)cc21` [Example 212], the MIC in assay [1] (overnight 37° C.) was > 25 µg/mL; in assay [2] (VREF, overnight 37° C.), > 25 µg/mL.

Consider `O=C(O)c1cc(-c2c[nH]c3cc(F)ccc23)nc2ccccc12` [Example 78], for which the MIC in assay [1] (setting [3]) and in assay [2] (setting [3]) was > 25 µg/mL throughout.

For `Cn1cc(-c2ccc3cc(Cl)ccc3n2)c2ccccc21` [Example 179], the MIC in assay [1] (setting [3]) and in assay [2] (setting [3]) was > 25 µg/mL throughout.
